Source: paper PMC11219871, “Epigenetic-based differentiation therapy for Acute Myeloid Leukemia” (Nature Communications, 2024)

Columns and labels:
Assay in all cases: Epigenetic panel (BPS Bioscience)
Assay type in all cases: binding
BRD4 (BD1+BD2) = target: T1, BRD4 (BD1+BD2) (Homo sapiens, UniProt O60885)
T1 construct: purchased BPS Bioscience; Eurofins (HDAC4, 5, 7-11)
From the text: (§1) The selectivity of CM-444 and CM-1758 against other epigenetic targets, including histone demethylase (JMJD2A, JMJD2B, JMJD2C, JMJD2D, JMJD2E, JMJD3, JMJD1A, LSD1, Jarid1A, Jarid1B, Jarid1C, FBXL10, FBXL11, JHDM1D, JMJD1B, PHF8, LSD2 and UTX); histone acetyltransferases (GCN5, P300); histone methyltransferases (G9a, GLP, MLL1, SET7/9, SUV39H1, SUV39H2, PRMT1, PRMT3, PRMT4, PRMT5, PRMT6, PRMT8, PRMT9, NSD1, NSD2, EZH1, EZH2, SETDB1, SETD2, SET8, SUV4-20H1, SMYD2, SMYD3, DOT1L, EZH2 (A677G), EZH2 (A677G), EZH2 (A738T), EZH2 (Y641S), EZH2 (P132S), EZH2 (Y641C), EZH2 (Y641F), EZH2 (Y641H), EZH2 (Y641N)); bromodomains (ATAD2B, ATAD2A, BRD1, BRD9, BPTF/FALZ, CeCR2, BRPF3, BRD3 (BD1 + BD2), BAZ2B, WDR9, TAF1 (BD2), TAF1L (BD2), TAF1L (BD1 + BD2), BRD2 (BD1), BRD2 (BD2), BRD2 (BD1 + BD2), BRD3 (BD1), BRD3 (BD2), BRD4 (BD1), BRD4 (BD2), BRD4 (BD1 + BD2), BRDT (BD1), BRDT (BD1 + BD2), CREBBP, SMARCA2A, SMARCA4/BRG1); DNA methyltranferases (DNMT1, DNMT3A/3L and DNMT3B/3L), and sirtuin histone deacetylases (SIRT1, SIRT2, SIRT3, SIRT5 and SIRT6), were determined by BPS Bioscience (http://www.bpsbioscience.com/index.ph). Binding experiments were performed in duplicate at a concentration of 10 μM.

ATAD2B = target: T2, ATAD2B (Homo sapiens, UniProt Q9ULI0)
T2 construct: purchased BPS Bioscience; Eurofins (HDAC4, 5, 7-11)
From the text: as §1

BRD2 (BD2) = target: T3, BRD2 (BD2) (Homo sapiens, UniProt P25440)
T3 construct: purchased BPS Bioscience; Eurofins (HDAC4, 5, 7-11)
From the text: as §1

BRD1 = target: T4, BRD1 (Homo sapiens, UniProt O95696)
T4 construct: purchased BPS Bioscience; Eurofins (HDAC4, 5, 7-11)
From the text: as §1

BRD2 (BD1) = target: T5, BRD2 (BD1) (Homo sapiens, UniProt P25440)
T5 construct: BRD2 (BD1); purchased BPS Bioscience (contracted assay service)
T5 sequence (P25440 74-180 limits assumed): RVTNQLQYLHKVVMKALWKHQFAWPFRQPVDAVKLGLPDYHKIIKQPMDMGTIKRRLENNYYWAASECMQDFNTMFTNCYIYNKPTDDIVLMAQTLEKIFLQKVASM
From the text: as §1

WDR9 = target: T6, WDR9 (Homo sapiens, UniProt Q9NSI6)
T6 construct: purchased BPS Bioscience (contracted assay service)
T6 sequence (Q9NSI6 whole entry): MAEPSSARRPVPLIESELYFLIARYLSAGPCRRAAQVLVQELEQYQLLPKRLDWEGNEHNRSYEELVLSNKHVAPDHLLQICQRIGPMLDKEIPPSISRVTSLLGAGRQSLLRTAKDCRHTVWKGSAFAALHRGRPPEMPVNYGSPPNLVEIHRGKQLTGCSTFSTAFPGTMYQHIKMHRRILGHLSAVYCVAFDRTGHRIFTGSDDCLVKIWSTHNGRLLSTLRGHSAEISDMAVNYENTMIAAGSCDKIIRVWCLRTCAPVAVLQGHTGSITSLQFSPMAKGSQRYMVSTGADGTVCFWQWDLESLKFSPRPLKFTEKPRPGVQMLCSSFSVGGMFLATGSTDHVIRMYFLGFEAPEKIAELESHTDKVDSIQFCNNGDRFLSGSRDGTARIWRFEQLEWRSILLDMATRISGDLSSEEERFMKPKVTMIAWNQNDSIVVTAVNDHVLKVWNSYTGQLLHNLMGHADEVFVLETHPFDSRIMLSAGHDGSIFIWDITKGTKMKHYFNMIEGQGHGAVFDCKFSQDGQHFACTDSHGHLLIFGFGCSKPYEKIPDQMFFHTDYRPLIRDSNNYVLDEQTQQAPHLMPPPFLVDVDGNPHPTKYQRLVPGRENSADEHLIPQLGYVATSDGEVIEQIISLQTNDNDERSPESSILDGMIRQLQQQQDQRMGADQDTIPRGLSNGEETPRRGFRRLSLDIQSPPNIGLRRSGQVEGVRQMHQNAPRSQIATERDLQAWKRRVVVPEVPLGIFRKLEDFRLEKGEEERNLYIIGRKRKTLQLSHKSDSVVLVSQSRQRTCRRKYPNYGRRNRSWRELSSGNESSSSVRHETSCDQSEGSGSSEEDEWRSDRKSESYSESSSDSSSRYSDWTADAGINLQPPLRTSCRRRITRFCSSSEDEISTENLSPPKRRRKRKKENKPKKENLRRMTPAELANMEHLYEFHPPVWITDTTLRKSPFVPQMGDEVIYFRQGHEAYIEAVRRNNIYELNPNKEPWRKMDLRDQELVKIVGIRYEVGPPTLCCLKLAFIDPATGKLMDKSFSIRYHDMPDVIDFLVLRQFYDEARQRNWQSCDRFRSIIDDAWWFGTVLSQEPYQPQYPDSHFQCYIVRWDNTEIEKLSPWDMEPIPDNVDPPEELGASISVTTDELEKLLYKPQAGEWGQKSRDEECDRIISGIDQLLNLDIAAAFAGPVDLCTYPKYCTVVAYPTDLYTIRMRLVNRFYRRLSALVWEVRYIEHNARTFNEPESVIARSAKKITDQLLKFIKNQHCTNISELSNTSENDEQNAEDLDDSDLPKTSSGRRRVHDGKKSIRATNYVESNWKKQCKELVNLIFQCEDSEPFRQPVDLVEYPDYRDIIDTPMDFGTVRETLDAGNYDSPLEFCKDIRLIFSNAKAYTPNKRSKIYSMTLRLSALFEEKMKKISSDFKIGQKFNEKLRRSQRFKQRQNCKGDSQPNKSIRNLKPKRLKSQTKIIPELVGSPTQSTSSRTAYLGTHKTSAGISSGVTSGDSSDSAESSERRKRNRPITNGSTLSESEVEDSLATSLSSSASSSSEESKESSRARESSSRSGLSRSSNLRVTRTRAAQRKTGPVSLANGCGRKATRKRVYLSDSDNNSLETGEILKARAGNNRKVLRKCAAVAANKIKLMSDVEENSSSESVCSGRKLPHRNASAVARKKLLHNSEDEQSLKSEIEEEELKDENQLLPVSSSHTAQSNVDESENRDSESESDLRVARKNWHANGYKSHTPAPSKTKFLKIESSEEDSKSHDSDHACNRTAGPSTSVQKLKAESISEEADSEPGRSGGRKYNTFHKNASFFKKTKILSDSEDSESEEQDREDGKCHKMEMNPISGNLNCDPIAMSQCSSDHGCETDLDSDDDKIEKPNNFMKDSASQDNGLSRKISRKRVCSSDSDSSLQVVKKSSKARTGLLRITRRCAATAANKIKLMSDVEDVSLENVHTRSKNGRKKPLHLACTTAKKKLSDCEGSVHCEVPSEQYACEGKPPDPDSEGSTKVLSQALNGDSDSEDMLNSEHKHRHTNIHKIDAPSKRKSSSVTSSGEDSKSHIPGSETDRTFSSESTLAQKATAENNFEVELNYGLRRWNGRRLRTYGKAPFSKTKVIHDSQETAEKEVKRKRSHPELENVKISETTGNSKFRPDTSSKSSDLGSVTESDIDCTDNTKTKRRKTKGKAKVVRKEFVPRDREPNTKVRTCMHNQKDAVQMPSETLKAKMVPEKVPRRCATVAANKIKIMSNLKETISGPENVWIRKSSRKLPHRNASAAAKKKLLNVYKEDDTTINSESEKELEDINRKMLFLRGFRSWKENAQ
From the text: as §1

BRD4 (BD1) = target: T7, BRD4 (BD1) (Homo sapiens, UniProt O60885)
T7 construct: purchased BPS Bioscience; Eurofins (HDAC4, 5, 7-11)
From the text: as §1

BRD2 (BD1+BD2) = target: T8, BRD2 (BD1+BD2) (Homo sapiens, UniProt P25440)
T8 construct: purchased BPS Bioscience; Eurofins (HDAC4, 5, 7-11)
T8 sequence (P25440 65-459 limits assumed): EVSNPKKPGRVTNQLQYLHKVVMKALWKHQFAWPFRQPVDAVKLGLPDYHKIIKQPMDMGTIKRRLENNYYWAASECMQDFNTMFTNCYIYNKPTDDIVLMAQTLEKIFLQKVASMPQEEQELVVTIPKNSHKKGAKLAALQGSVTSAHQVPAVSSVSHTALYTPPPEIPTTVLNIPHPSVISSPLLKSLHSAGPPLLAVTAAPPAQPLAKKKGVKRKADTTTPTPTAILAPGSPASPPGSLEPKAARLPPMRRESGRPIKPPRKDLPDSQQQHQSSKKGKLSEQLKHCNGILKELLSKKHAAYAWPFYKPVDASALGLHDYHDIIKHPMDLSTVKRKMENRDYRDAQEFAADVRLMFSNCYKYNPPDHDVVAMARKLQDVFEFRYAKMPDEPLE
From the text: as §1

BRD3 (BD2) = target: T9, BRD3 (BD2) (Homo sapiens, UniProt Q15059)
T9 construct: purchased BPS Bioscience; Eurofins (HDAC4, 5, 7-11)
From the text: as §1

BRD9 = target: T10, BRD9 (Homo sapiens, UniProt Q9H8M2)
T10 construct: purchased BPS Bioscience (contracted assay service)
T10 sequence (Q9H8M2 1-597): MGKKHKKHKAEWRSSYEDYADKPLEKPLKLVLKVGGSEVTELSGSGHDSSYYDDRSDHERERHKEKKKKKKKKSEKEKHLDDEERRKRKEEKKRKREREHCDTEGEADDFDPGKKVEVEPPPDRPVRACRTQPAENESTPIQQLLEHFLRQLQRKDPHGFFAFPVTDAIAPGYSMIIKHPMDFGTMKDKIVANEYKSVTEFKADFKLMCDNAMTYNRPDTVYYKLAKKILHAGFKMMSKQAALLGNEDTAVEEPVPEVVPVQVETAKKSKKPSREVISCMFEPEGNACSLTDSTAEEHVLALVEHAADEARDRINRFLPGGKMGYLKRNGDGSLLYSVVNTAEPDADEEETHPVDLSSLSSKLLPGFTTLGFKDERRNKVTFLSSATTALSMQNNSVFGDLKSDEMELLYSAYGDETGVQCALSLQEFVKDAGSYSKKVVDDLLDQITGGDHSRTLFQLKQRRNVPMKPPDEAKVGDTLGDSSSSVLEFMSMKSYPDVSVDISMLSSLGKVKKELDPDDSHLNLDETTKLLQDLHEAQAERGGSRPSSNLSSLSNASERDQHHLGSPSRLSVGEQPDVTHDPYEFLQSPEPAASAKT
From the text: as §1

BRDT (BD1) = target: T11, BRDT (BD1) (Homo sapiens, UniProt Q58F21)
T11 construct: purchased BPS Bioscience; Eurofins (HDAC4, 5, 7-11)
From the text: as §1

TAF1L (BD1+BD2) = target: T12, TAF1L (BD1+BD2) (Homo sapiens, UniProt Q8IZX4)
T12 construct: purchased BPS Bioscience; Eurofins (HDAC4, 5, 7-11)
T12 sequence (Q8IZX4 1395-1654): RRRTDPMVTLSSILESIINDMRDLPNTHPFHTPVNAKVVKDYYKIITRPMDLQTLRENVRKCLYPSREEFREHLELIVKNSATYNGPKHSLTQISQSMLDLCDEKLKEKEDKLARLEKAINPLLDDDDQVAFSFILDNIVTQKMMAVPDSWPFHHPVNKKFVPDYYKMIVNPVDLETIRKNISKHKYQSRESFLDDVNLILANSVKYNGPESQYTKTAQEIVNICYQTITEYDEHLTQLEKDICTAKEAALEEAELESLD
From the text: as §1

TAF1 (BD2) = target: T13, TAF1 (BD2) (Homo sapiens, UniProt P21675)
T13 construct: purchased BPS Bioscience; Eurofins (HDAC4, 5, 7-11)
T13 sequence (P21675 1522-1656 limits assumed): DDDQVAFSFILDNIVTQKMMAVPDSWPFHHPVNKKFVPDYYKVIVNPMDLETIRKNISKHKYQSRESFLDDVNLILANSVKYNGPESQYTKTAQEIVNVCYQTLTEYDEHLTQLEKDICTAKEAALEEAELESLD
From the text: as §1

SMARCA2A = target: T14, SMARCA2A (Homo sapiens, UniProt P51531)
T14 construct: purchased BPS Bioscience; Eurofins (HDAC4, 5, 7-11)
T14 sequence (P51531 whole entry): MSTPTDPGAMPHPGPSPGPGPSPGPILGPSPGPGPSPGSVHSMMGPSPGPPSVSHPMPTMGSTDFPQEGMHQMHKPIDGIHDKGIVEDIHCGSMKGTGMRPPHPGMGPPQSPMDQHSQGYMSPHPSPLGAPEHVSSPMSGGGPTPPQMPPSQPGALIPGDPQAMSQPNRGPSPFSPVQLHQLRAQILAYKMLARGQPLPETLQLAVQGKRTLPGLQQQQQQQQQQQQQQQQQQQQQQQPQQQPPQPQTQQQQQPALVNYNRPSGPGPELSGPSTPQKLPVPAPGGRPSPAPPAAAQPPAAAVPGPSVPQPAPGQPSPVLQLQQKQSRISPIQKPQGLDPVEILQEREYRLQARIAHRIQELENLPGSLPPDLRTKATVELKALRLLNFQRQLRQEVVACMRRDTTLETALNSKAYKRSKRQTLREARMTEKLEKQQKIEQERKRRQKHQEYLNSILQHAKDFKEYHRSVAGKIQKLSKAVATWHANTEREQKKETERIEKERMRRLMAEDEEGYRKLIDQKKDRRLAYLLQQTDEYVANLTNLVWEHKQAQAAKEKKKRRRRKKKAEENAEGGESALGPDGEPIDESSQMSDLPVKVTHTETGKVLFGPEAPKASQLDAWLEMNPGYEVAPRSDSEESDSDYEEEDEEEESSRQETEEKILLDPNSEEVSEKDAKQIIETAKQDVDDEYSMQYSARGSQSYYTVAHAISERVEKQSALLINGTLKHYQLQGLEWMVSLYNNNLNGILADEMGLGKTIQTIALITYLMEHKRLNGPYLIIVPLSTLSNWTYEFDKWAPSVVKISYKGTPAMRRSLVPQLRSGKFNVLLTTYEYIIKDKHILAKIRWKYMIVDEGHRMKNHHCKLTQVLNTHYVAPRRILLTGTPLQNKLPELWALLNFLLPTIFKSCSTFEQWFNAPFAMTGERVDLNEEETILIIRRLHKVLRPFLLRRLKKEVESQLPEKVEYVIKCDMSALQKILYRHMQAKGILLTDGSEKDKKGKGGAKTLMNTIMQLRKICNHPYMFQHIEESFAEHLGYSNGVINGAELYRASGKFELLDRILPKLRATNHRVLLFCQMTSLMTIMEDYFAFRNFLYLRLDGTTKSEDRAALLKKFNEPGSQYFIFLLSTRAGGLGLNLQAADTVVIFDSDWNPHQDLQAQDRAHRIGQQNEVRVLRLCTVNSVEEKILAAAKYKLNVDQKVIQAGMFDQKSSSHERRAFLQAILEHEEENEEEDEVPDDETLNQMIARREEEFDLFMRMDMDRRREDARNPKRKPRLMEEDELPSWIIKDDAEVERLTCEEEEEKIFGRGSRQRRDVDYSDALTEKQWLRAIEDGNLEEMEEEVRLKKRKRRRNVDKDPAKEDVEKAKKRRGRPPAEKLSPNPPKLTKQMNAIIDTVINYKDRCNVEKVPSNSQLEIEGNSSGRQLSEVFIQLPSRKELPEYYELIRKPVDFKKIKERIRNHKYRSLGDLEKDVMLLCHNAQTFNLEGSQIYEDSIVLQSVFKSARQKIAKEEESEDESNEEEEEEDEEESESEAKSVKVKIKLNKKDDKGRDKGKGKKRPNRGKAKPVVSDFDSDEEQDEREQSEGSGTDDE
From the text: as §1

BPTF/FALZ = target: T15, BPTF/FALZ (Homo sapiens, UniProt Q12830)
T15 construct: purchased BPS Bioscience; Eurofins (HDAC4, 5, 7-11)
From the text: as §1

BRDT (BD1+BD2) = target: T16, BRDT (BD1+BD2) (Homo sapiens, UniProt Q58F21)
T16 construct: purchased BPS Bioscience; Eurofins (HDAC4, 5, 7-11)
From the text: as §1

BRD4 (BD2) = target: T17, BRD4 (BD2) (Homo sapiens, UniProt O60885)
T17 construct: purchased BPS Bioscience; Eurofins (HDAC4, 5, 7-11)
From the text: as §1

BRD3 (BD1) = target: T18, BRD3 (BD1) (Homo sapiens, UniProt Q15059)
T18 construct: BRD3 (BD1); purchased BPS Bioscience (contracted assay service)
T18 sequence (Q15059 34-140 limits assumed): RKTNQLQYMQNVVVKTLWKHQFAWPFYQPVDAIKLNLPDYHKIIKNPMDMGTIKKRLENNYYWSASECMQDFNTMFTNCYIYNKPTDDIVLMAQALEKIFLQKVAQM
From the text: as §1

BRPF3 = target: T19, BRPF3 (Homo sapiens, UniProt Q9ULD4)
T19 construct: purchased BPS Bioscience; Eurofins (HDAC4, 5, 7-11)
From the text: as §1

BRD3 (BD1+BD2) = target: T20, BRD3 (BD1+BD2) (Homo sapiens, UniProt Q15059)
T20 construct: purchased BPS Bioscience; Eurofins (HDAC4, 5, 7-11)
From the text: as §1

TAF1L (BD2) = target: T21, TAF1L (BD2) (Homo sapiens, UniProt Q8IZX4)
T21 construct: purchased BPS Bioscience; Eurofins (HDAC4, 5, 7-11)
T21 sequence (Q8IZX4 1523-1654 limits assumed): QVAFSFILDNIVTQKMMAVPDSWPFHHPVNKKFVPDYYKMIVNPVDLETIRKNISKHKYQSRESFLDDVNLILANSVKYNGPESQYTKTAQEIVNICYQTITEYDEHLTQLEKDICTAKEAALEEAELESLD
From the text: as §1

## COc1cc2nc(-c3ccc(C)o3)cc(NCC3CCN(c4ncc(C(=O)NO)cn4)CC3)c2cc1OC [CM-444, 2-[4-[[[6,7-dimethoxy-2-(5-methyl-2-furyl)-4-quinolyl]amino]methyl]-1-piperidyl]pyrimidine-5-carbohydroxamic acid]
BRD4 (BD1+BD2)
  inhibition at 10 µM: 41%
ATAD2B
  inhibition at 10 µM: 0%
BRD2 (BD2)
  inhibition at 10 µM: 0%
BRD1
  inhibition at 10 µM: 0%
BRD2 (BD1)
  IC50: 30.8 µM
  inhibition at 10 µM: 71%
WDR9
  IC50: > 50 µM
  inhibition at 10 µM: 51%
BRD4 (BD1)
  inhibition at 10 µM: 6%
BRD2 (BD1+BD2)
  inhibition at 10 µM: 21%
BRD3 (BD2)
  inhibition at 10 µM: 0%
BRD9
  IC50: 13 µM
  inhibition at 10 µM: 69%
BRDT (BD1)
  inhibition at 10 µM: 44%
TAF1L (BD1+BD2)
  inhibition at 10 µM: 0%
TAF1 (BD2)
  inhibition at 10 µM: 0%
SMARCA2A
  inhibition at 10 µM: 0%
BPTF/FALZ
  inhibition at 10 µM: 0%
BRDT (BD1+BD2)
  inhibition at 10 µM: 38%
BRD4 (BD2)
  inhibition at 10 µM: 0%
BRD3 (BD1)
  inhibition at 10 µM: 20%
BRPF3
  inhibition at 10 µM: 0%
BRD3 (BD1+BD2)
  inhibition at 10 µM: 43%
TAF1L (BD2)
  inhibition at 10 µM: 0%

## COc1cc2nc(-c3cc(C)oc3C)cc(NCC3CCN(c4ncc(C(=O)NO)cn4)CC3)c2cc1OC [CM-1758, 2-[4-[[[2-(2,5-dimethyl-3-furyl)-6,7-dimethoxy-4-quinolyl]amino]methyl] -1-piperidyl]pyrimidine-5-carbohydroxamic acid]
BRD4 (BD1+BD2)
  inhibition at 10 µM: 50%
ATAD2B
  inhibition at 10 µM: 13%
BRD2 (BD2)
  inhibition at 10 µM: 34%
BRD1
  inhibition at 10 µM: 3%
BRD2 (BD1)
  inhibition at 10 µM: 25%
WDR9
  inhibition at 10 µM: 35%
BRD4 (BD1)
  inhibition at 10 µM: 0%
BRD2 (BD1+BD2)
  inhibition at 10 µM: 29%
BRD3 (BD2)
  inhibition at 10 µM: 0%
BRD9
  IC50: 36 µM
  inhibition at 10 µM: 75%
BRDT (BD1)
  inhibition at 10 µM: 23%
TAF1L (BD1+BD2)
  inhibition at 10 µM: 0%
TAF1 (BD2)
  inhibition at 10 µM: 0%
SMARCA2A
  inhibition at 10 µM: 0%
BPTF/FALZ
  inhibition at 10 µM: 0%
BRDT (BD1+BD2)
  inhibition at 10 µM: 17%
BRD4 (BD2)
  inhibition at 10 µM: 0%
BRD3 (BD1)
  IC50: > 50 µM
  inhibition at 10 µM: 60%
BRPF3
  inhibition at 10 µM: 40%
BRD3 (BD1+BD2)
  inhibition at 10 µM: 29%
TAF1L (BD2)
  inhibition at 10 µM: 0%
